Test results published in article PMC8870237, “Improved Multimodal Tumor Necrosis Imaging with IRDye800CW-DOTA Conjugated to an Albumin-Binding Domain” (Cancers, 2022).
“Also recorded” adds a separate entry of the source.

Experiments:
[1] = n-octanol/PBS distribution coefficient (LogD7.4); assay type: physicochemical; settings: LogD7.4, indium-111 labeled material, triplicates
Protocol: The [^111In]1, [^111In]2, and [^111In]3 were labeled at a molar activity of 10 MBq/nmol and 100 kBq was added to n-octanol (500 µL) and PBS (500 µL). After vigorous vortexing, the vial was centrifuged at 16.1 × 1000 g for 3 min. The octanol phase was carefully pipetted into a new vial and both layers were centrifuged again. From both the organic and the aqueous layers, samples (10 µL) were taken out and counted for activity on a γ-counter. LogD values were calculated as follows: Log ([NACA]n-octanol/[NACA]PBS). These experiments were performed as triplicates.

[2] = test system: 4T1-Luc2 cells; experiment: In vitro dead/alive cell binding assay (fluorescence and γ-counting); assay type: cell-based, mouse; settings: 100 nM, EtOH-killed or alive 4T1-Luc2 cells; for dead/alive cell binding, fluorescence signal: non-radioactive precursors, 30 min, 37 °C, 800 nm; for dead/alive cell binding, radioactivity: indium-111 labeled, 2.5 MBq/nmol, γ-counting
Protocol: The 4T1-Luc2 cells were cultured in RPMI-1640 medium containing 10% fetal bovine, penicillin (100 U/mL), and streptomycin ([…]) 37 °C under a humidified atmosphere with 5% CO2. The cells were seeded in 24 well plates (1 × 10^5 cells per well). The next day, the cells were killed with EtOH (70%, 50 μL) or kept alive and incubated for 30 min at 37 °C with 100 nM of the NACAs in culturing medium. The plate was then imaged on an Odyssey (Li-Cor, 800 nm laser intensity 5.0).
Similarly, these killed and alive cells were incubated with the indium-111 labeled NACAs (100 nM, 2.5 MBq/nmol) in culturing medium. The cells were washed with PBS and collected with NaOH (1.0 M) for γ-counting. These experiments were performed as triplicates.

[3] = test system: 4T1-Luc2 cells; experiment: Fluorescence microscopy of dead and alive cells; assay type: cell-based, mouse; settings: unlabeled, 100 nM, 30 min, 37 °C
Protocol: The 4T1-Luc2 cells were seeded on 10 mm diameter coverslips in 24 well plates (10^5 cells per well). The cells were kept alive or killed with 50 µL EtOH (70%) and incubated in culturing medium with or without unlabeled 3 (100 nM) for 30 min at 37 °C. The cells were gently washed with PBS three times and incubated with Calcein-AM (CAM, 2 µM) and propidium iodide (PI, 4 µM) in PBS for 30 min at 37 °C [24]. Then, the cells were fixated with PFA (4% in PBS, 10 min, RT) and nuclei were stained with DAPI (Sigma-Aldrich, 1:1000 in PBS, 5 min). After final washing with PBS, the coverslips were removed from the well plate and mounted on a microscope slide for fluorescence microscope imaging at 20× magnification.

[4] = In vitro protein binding in mouse serum (ultrafiltration); assay type: in vitro ADME; settings: 37 °C, 30 min, indium-111 labeled material
Protocol: Protein binding of the NACAs was determined as reported elsewhere. The NACAs were labeled with indium-111 (50 MBq/nmol), added to mouse serum (1 MBq/500 µL), and incubated at 37 °C for 30 min. Four portions of 10 µL were taken and counted on a γ-counter. The remaining serum was transferred to a centifree ultrafiltration device (4104 centrifugal filter units; Millipore, 30 kDa nominal molecular weight limit, methylcellulose micro partition membranes equilibrated once with 5% v/v Tween-80 in phosphate-buffered saline (PBS) and then trice with PBS) and centrifuged at 7.0 × 1000 g for 40 min at room temperature. Four portions of 10 µL from the filtrates were counted for radioactivity in a γ-counter. The amount of plasma-bound radioligand was calculated as the fraction between the radioactivity measured in the filtrate portions relative to the corresponding loading solution (set to 100%).

[5] = test system: MCF7-Luc2 tumors; experiment: Tumor uptake in doxorubicin- or saline-treated MCF7-Luc2 tumor-bearing mice; assay type: in vivo, mouse; settings: 1 h p.i., ±SEM
Protocol: (§1) The quadruple modality imaging procedure is illustrated in Figure S21. The tumor-bearing mice were injected with [^111In]3 (20 MBq, 2 nmol) in 200 µL PBS into the tail vein. The following day, the mice fasted for four hours before they were injected with [^18F]FDG (10 MBq, 200 µL) in PBS. At 24 h p.i. of [^111In]3 and 1 h p.i. of [^18F]FDG, FLI imaging was performed with a 730 nm excitation and 760 nm emission filter for 400 ms with 4 × 4 binning. Then, the mice received an intraperitoneal injection of D-luciferin (150 mg/kg) maintaining the position of the mice in the bed unaltered. During the onset of the bioluminescence signal, PET/SPECT imaging was performed of the tumors with a 2 cm axial field of view over a total scan time of 30 min, followed by a 2 min full-body CT. Finally, BLI imaging was performed with an open filter for 400 ms with 4 × 4 binning. Imaging was performed under isoflurane anesthesia whilst maintaining the body temperature constant.
Six mice were inoculated bilaterally with MCF7-Luc2 cells (3.0 × 10^6), suspended in 30 µL PBS:Matrigel (1:1; v/v). On days 14, 16, and 18 after inoculation, the tumor-bearing mice received either doxorubicin (5 mg/kg, Janssen Pharmaceuticals, Beerse, Belgium) or a saline solution via i.v. injection. On days 21 and 22 after inoculation, the mice underwent the FLI, BLI, and PET/SPECT/CT imaging procedure (vide supra).
(§2) After the final imaging experiments, the mice were sacrificed by cervical dislocation, tumors and organs were collected, weighted, and activity was accurately quantified by γ-counting to determine radioactivity uptake in the percentage of injected dose per gram (%ID/g). After γ-counting, the tumors were frozen in liquid nitrogen and stored at −80 °C overnight. Adjacent cryosections (10 µm) were prepared of the tumor centers for autoradiography. The sections were stored at −20 °C for the radioactivity to decay, before 800 nm fluorescence imaging and histochemical dead cell staining.

[6] = test system: EMT6-Luc2 tumors; experiment: Tumor uptake in EMT6-Luc2 tumor-bearing mice; assay type: in vivo, mouse; settings: untreated, 1 h p.i., ±SEM
Protocol: as §1, with “constant. […]” for “constant.”
as §2, with “After γ-counting, the tumors were frozen in liquid nitrogen and stored at −80 °C overnight. Adjacent cryosections (10 µm) were prepared of the tumor centers for autoradiography.” left out

[7] = test system: 4T1-Luc2 tumors; parameters: method as in PMID 32514888; settings: comparison value; cited from earlier work
[8] = In vivo stability (radio-HPLC of urine 1 h after injection); parameters: species or system mouse; settings: mice, i.v., 1 h p.i.
Text: After an hour, the mice were sacrificed by cervical dislocation and blood and urine were collected, which were frozen in liquid nitrogen directly after extraction. […] The supernatant was collected and analyzed by radio-HPLC (Method-D).

CC1(C)C(/C=C/C2=C(Oc3ccc(S(=O)(=O)O)cc3)C(=C/C=C3\N(CCCCS(=O)(=O)O)c4ccc(S(=O)(=O)O)cc4C3(C)C)/CCC2)=[N+](CCCCCC(=O)NCCCC[C@@H](NC(=O)CCCc2ccc(I)cc2)C(=O)NCc2ccc(CNC(=O)CN3CCN(CC(=O)O)CCN(CC(=O)O)CCN(CC(=O)O)CC3)cc2)c2ccc(S(=O)(=O)O)cc21 [Compound 3]
LogD [1]: −2.73 ± 0.14
dead/alive cell binding, fluorescence signal [2]: considerably stronger binding to the dead cells than compound 1
NIR-fluorescence binding to dead and alive cells (microscopy) [3]: distinct NIR-fluorescent signal was observed from dead cells; also recorded: binds to dead cells and not to alive cells
Protein Binding [4]: 94 ± 0.2%

NCCCC[C@H](NC(=O)CCCc1ccc(I)cc1)C(=O)NCc1ccc(CNC(=O)CN2CCN(CC(=O)[O-])CCN(CC(=O)[O-])CCN(CC(=O)[O-])CC2)cc1.[111In+3] [[^111In]8]
dead/alive cell binding, radioactivity [2]: did not show considerable dead cell binding

OC[C@H]1OC(O)[C@H]([18F])[C@@H](O)[C@@H]1O (stereo partly drawn) [[^18F]FDG, reference compound]
tumor uptake of [18F]FDG ([5]; after doxorubicin treatment (5 mg/kg i.v., 3 injections)): 1.79 ± 0.11 %ID/g
tumor uptake of [18F]FDG ([5]; after saline treatment (control)): 3.02 ± 0.51 %ID/g
tumor uptake of [18F]FDG [6]: 4.13 ± 0.58 %ID/g

CC1(C)C(=CC=C2CCCC(C=CC3=[N+](CCCCCC(=O)NCCCCC(NC(=O)C(CCCCNC(=O)CCCc4ccc(I)cc4)NC(=O)CN4CCN(CC(=O)O)CCN(CC(=O)O)CCN(CC(=O)O)CC4)C(N)=O)c4ccc(S(=O)(=O)O)cc4C3(C)C)=C2Oc2ccc(S(=O)(=O)O)cc2)N(CCCCS(=O)(=O)O)c2ccc(S(=O)(=O)O)cc21 (stereo not drawn) [Compound 2]
LogD [1]: −2.47 ± 0.01
dead/alive cell binding, fluorescence signal [2]: considerably stronger binding to the dead cells than compound 1
Protein Binding [4]: 95 ± 0.1%

CC1(C)C(=CC=C2CCCC(C=CC3=[N+](CCCCCC(=O)NCCOCCOCCOCCOCCNC(=O)CN4CCN(CC(=O)[O-])CCN(CC(=O)[O-])CCN(CC(=O)[O-])CC4)c4ccc(S(=O)(=O)O)cc4C3(C)C)=C2Oc2ccc(S(=O)(=O)O)cc2)N(CCCCS(=O)(=O)O)c2ccc(S(=O)(=O)O)cc21.[111In+3] [[^111In]1, [^111In]In-DOTA-PEG4-IRDye800CW]
radioactive tumor uptake in the SPECT images [7]: 0.26 ± 0.05 %ID/mL
Protein Binding [4]: 70%

CC1(C)C(=CC=C2CCCC(C=CC3=[N+](CCCCCC(=O)NCCOCCOCCOCCOCCNC(=O)CN4CCN(CC(=O)O)CCN(CC(=O)O)CCN(CC(=O)O)CC4)c4ccc(S(=O)(=O)O)cc4C3(C)C)=C2Oc2ccc(S(=O)(=O)O)cc2)N(CCCCS(=O)(=O)O)c2ccc(S(=O)(=O)O)cc21 [Compound 1]
LogD [1]: −3.58 ± 0.07
dead/alive cell binding, fluorescence signal [2]: specifically bound to dead cells and not to live cells
Protein Binding [4]: 70 ± 0.9%

CC1(C)C(=CC=C2CCCC(C=CC3=[N+](CCCCCC(=O)NCCCC[C@H](NC(=O)[C@H](CCCCNC(=O)CCCc4ccc(I)cc4)NC(=O)CN4CCN(CC(=O)[O-])CCN(CC(=O)[O-])CCN(CC(=O)[O-])CC4)C(N)=O)c4ccc(S(=O)(=O)O)cc4C3(C)C)=C2Oc2ccc(S(=O)(=O)O)cc2)N(CCCCS(=O)(=O)O)c2ccc(S(=O)(=O)O)cc21.[111In+3] [[^111In]2]
in vivo stability [8]: decomposed after an hour
dead/alive cell binding, radioactivity [2]: increased as compared to [^111In]1
